# Test results from ChEMBL document CHEMBL5154887, “Novel CRBN-Recruiting Proteolysis-Targeting Chimeras as Degraders of Stimulator of Interferon Genes with In Vivo Anti-Inflammatory Efficacy” (J Med Chem, 2022).
# The source made the active and inactive calls. No cut-off for these calls is given here.
# Key:
# [1] = Tmax in Sprague-Dawley rat at 20 mg/kg, po measured upto 48 hrs by UPLC-triple quadrupole MS analysis; assay type: ADME, organism-based; settings: in vivo
# Mus musculus [2] = experiment: Antiinflammatory activity against cisplatin-induced acute kidney injury in C57BL/6J mouse model assessed as reduction in kidney weight at 60 mg/kg, ip pretreated for 1 hr followed by cisplatin administration and measured after 72 hrs relative to control; assay type: functional; parameters: scale not given: the % may be the effect or the level left; settings: time 73 hrs
# [3] = Half life in Sprague-Dawley rat at 2 mg/kg, iv measured upto 48 hrs by UPLC-triple quadrupole MS analysis; assay type: ADME, organism-based; settings: in vivo
# [4] = Toxicity in cisplatin-induced acute kidney injury in C57BL/6J mouse model assessed as tubular epithelial edema in kidney at 30 to 60 mg/kg, ip pretreated for 1 hr followed by cisplatin administration and measured after 72 hrs by H and E staining based analysis; assay type: organism-based; settings: in vivo, 73 h, dose 30-60 mg/kg
# [5] = AUC (0 to infinity) in Sprague-Dawley rat at 20 mg/kg, po measured upto 48 hrs by UPLC-triple quadrupole MS analysis; assay type: ADME, organism-based; parameters: dose 20 mg/kg, time < 48 hrs, route po; settings: in vivo
# [6] = Renal toxicity in C57BL/6J mouse assessed as reduction in creatinine level at 30 mg/kg, ip (Rvb= 8.5 umol/L); assay type: organism-based; settings: in vivo
# [7] = Toxicity in cisplatin-induced acute kidney injury in C57BL/6J mouse model assessed as illegible tubular structure in kidney at 30 to 60 mg/kg, ip pretreated for 1 hr followed by cisplatin administration and measured after 72 hrs by H and E staining based analysis; assay type: organism-based; settings: in vivo, 73 h, dose 30-60 mg/kg
# [8] = Renal toxicity in C57BL/6J mouse assessed as reduction in BUN level at 30 mg/kg, ip (Rvb= 8.9 mmol/L); assay type: organism-based; settings: in vivo
# [9] = Clearance in Sprague-Dawley rat at 20 mg/kg, po measured upto 48 hrs by UPLC-triple quadrupole MS analysis; assay type: ADME, organism-based; settings: in vivo
# THP-1 [10] = experiment: Inhibition of cGAS-STING signalling pathway in human THP-1 cells assessed as downregulation of cGAMP-triggered IL-6 expression preincubated for 2 hrs followed by cGAMP stimulation and measured after 24 hrs by ELISA; assay type: cell-based; settings: dose 2.5-20 µM, time 26.0 hrs, DDE = dose-dependent effect
# [11] = Toxicity in C57BL/6J mouse assessed as body weight loss at 60 mg/kg, ip measured after 4 days relative to control; assay type: organism-based; settings: in vivo, 96 h, time 4 day
# Mus musculus [12] = experiment: Renal protective activity against cisplatin-induced acute kidney injury in C57BL/6J mouse model assessed as clear cortical medullary demarcation at 60 mg/kg, ip by NMR based analysis; assay type: functional, organism-based
# [13] = Apparent volume of distribution in Sprague-Dawley rat at 2 mg/kg, iv measured upto 48 hrs by UPLC-triple quadrupole MS analysis; assay type: ADME, organism-based; settings: in vivo, read-out: Vz
# THP-1 [14] = experiment: Inhibition of cGAS-STING signalling pathway in human THP-1 cells assessed as downregulation of cGAMP-triggered CXCL10 expression preincubated for 2 hrs followed by cGAMP stimulation and measured after 24 hrs by ELISA; assay type: cell-based; settings: dose 2.5-20 µM, time 26.0 hrs, DDE = dose-dependent effect
# [15] = Cytotoxicity against HEK293-A cells assessed as reduction in cell viability at <10 uM by MTT assay; assay type: toxicity, cell-based; settings: human
# [16] = Toxicity in cisplatin-induced acute kidney injury in C57BL/6J mouse model assessed as morphological abnormalities in liver at 30 to 60 mg/kg, ip pretreated for 1 hr followed by cisplatin administration and measured after 72 hrs by H and E staining based analysis; assay type: organism-based; settings: in vivo, 73 h, dose 30-60 mg/kg
# [17] = molecular target: Protein cereblon/Stimulator of interferon genes protein (Homo sapiens, UniProt Q96SW2+Q86WV6); experiment: Protac activity at CRBN/STING in human THP-1 cells assessed as increase in STING degradation incubated for 48 hrs by Western blot analysis; assay type: cell-based
# Chain of Protein cereblon/Stimulator of interferon genes protein (Q96SW2 whole entry): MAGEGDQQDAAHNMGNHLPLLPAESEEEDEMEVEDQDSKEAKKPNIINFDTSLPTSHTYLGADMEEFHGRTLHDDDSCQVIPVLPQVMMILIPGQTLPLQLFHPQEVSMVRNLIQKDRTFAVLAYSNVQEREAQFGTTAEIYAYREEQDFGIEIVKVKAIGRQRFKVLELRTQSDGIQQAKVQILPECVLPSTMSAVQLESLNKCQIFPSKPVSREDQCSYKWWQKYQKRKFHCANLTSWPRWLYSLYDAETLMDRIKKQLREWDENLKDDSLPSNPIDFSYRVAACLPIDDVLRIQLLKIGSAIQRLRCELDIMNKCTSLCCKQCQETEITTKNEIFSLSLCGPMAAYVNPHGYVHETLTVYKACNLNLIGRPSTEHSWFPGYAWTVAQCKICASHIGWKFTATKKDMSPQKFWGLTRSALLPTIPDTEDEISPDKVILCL
# Chain of Protein cereblon/Stimulator of interferon genes protein (Q86WV6 whole entry): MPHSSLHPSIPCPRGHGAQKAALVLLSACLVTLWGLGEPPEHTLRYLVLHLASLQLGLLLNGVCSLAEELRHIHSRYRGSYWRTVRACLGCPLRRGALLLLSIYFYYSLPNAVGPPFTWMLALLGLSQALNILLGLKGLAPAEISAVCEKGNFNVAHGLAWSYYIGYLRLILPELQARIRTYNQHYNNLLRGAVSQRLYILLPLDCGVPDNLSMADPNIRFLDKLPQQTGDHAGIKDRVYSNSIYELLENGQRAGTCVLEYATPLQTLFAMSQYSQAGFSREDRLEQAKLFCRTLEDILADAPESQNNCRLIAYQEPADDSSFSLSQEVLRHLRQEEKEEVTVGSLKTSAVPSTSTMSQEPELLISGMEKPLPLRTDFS
# [18] = Oral bioavailability in Sprague-Dawley rat at 20 mg/kg measured upto 48 hrs by UPLC-triple quadrupole MS analysis; assay type: ADME, organism-based; settings: in vivo
# [19] = (§1) In vivo inhibition of STING signalling pathway in cisplatin-induced acute kidney injury in C57BL/6J mouse model assessed as reduction in STING protein expression in kidney at 30 mg/kg, ip pretreated for 1 hr followed by cisplatin administration and measured after 72 hrs by Western blot analysis (Rvb= 375%); assay type: functional; parameters: scale not given: the % may be the effect or the level left; settings: time 73 hrs
# [20] = Toxicity in C57BL/6J mouse assessed as body weight loss at 30 mg/kg, ip measured after 4 days relative to control; assay type: organism-based; settings: in vivo, 96 h, time 4 day
# Mus musculus [21] = experiment: Renal protective activity against cisplatin-induced acute kidney injury in C57BL/6J mouse model assessed as reduction in abnormal signal intensities of T2 at 60 mg/kg, ip by NMR based analysis; assay type: functional, organism-based
# L02 = experiment: Cytotoxicity against human L02 cells assessed as reduction in cell viability at <10 uM by MTT assay; assay type: toxicity, cell-based; settings: l02, 10 µM
# Mus musculus [22] = experiment: In vivo inhibition of STING signalling pathway in ip dosed cisplatin-induced acute kidney injury in C57BL/6J mouse model assessed as reduction in IL-6 expression in blood of mouse eyeballs pretreated for 1 hr followed by cisplatin administration and measured after 72 hrs by ELISA; assay type: functional, organism-based; settings: time 73.0 hrs, DDE = dose-dependent effect
# [23] = as §1, with “60” for “30”; assay type: functional; parameters: scale not given: the % may be the effect or the level left; settings: time 73 hrs
# [24] = Toxicity in cisplatin-induced acute kidney injury in C57BL/6J mouse model assessed as vacuole like changes in kidney at 30 to 60 mg/kg, ip pretreated for 1 hr followed by cisplatin administration and measured after 72 hrs by H and E staining based analysis; assay type: organism-based; settings: in vivo, 73 h, dose 30-60 mg/kg
# [25] = Toxicity in cisplatin-induced acute kidney injury in C57BL/6J mouse model assessed as tubular obstruction in kidney at 30 to 60 mg/kg, ip pretreated for 1 hr followed by cisplatin administration and measured after 72 hrs by H and E staining based analysis; assay type: organism-based; settings: in vivo, 73 h, dose 30-60 mg/kg
# Mus musculus [26] = experiment: In vivo inhibition of STING signalling pathway in ip dosed cisplatin-induced acute kidney injury in C57BL/6J mouse model assessed as reduction in IFN-beta expression in blood of mouse eyeballs pretreated for 1 hr followed by cisplatin administration and measured after 72 hrs by ELISA; assay type: functional, organism-based; settings: time 73.0 hrs, DDE = dose-dependent effect
# [27] = Cytotoxicity against mouse C17.2 cells assessed as cell growth inhibition at 30 uM by MTT assay relative to control; assay type: toxicity, cell-based
# [28] = Cytotoxicity against mouse C17.2 cells assessed as reduction in cell viability at <10 uM by MTT assay; assay type: toxicity, cell-based; settings: c17.2, 10 µM
# [29] = MRT (0 to t) in Sprague-Dawley rat at 2 mg/kg, iv measured upto 48 hrs by UPLC-triple quadrupole MS analysis; assay type: ADME, organism-based; settings: in vivo
smiles,measurement,setting,value
O=C(/C=C/C(=O)Nc1ccc(NC(=O)c2ccc([N+](=O)[O-])o2)cc1)NCCCCCCNc1cccc2c1C(=O)N(C1CCC(=O)NC1=O)C2=O (stereo not given),Tmax,[1],3.71 h
same,Activity,Mus musculus [2],26%
same,half-life,[3],232 min
same,Activity,[4],Non-Toxic
same,AUC(0-inf),[5],55.7 ng·h/mL
same,Activity,[6],26.8 µmol/L
same,Activity,[7],Non-Toxic
same,Activity,[8],27.2 mmol/L
same,CL/F,[9],7160 mL/min/kg
same,Activity,THP-1 [10],Dde
same,Activity,[11],9%
same,Activity,Mus musculus [12],Active
same,Vd,[13],38 L/kg
same,Activity,THP-1 [14],Dde
same,Activity,[15],Non-Toxic
same,Activity,[16],Non-Toxic
same,DC50,[17],3.2 µM
same,bioavailability,[18],2.15%
same,Activity,[19],150%
same,Activity,[20],13%
same,Activity,Mus musculus [21],Active
same,Activity,L02,Non-Toxic
same,inhibition,Mus musculus [22],Dde
same,Activity,[23],70%
same,Activity,[24],Non-Toxic
same,Activity,[25],Non-Toxic
same,inhibition,Mus musculus [26],Dde
same,inhibition at 30 µM,[27],15.6%
same,Activity,[28],Non-Toxic
same,MRT last at 48 h,[29],1.74 h
